The values below come from patent US10336768B2, “Pyrimidine compounds and methods using the same” (Yuma Therapeutics, Inc., priority 2014, dated 2019).

Molecules are shown by their SMILES.

The first test has as its system T1, His-tagged-Hsp90.
T1 construct: fused on or other part: His tag (captured on Ni2+-coated beads)
The test can be described thus: Hsp90 biochemical assay (AlphaLISA). The class given is binding. Conditions: IC50 class; AlphaLISA (primary assay); read-out: Hsp90 inhibitory activity. As to the method:
This assay employs biotinylated geldanamycin, His-tagged-Hsp90, and Ni^+2 coated beads. This assay is homogenous and miniaturized to 384-well plates. Measurement of binding activity was performed on an Envision reader. […] This assay is the primary assay for evaluating compounds of the invention.
As to `COc1ccc(Cl)c(-c2cc(Cl)nc(N)n2)c1` [Compound 78], the IC50 lay in the range of 1000 to 4000 nM. Consider `COc1cc(-c2cc(Cl)nc(N)n2)ccc1Cl` [Compound 79], for which the IC50 was less than 1000 nM. On the same count and under the same terms, under `COc1cc(-c2cc(C)nc(N)n2)c(C(F)(F)F)cc1Cl` [compound 1] stands more than 10000 nM.

Take `Cc1cc(-c2cc(OC(C)C)c(Cl)cc2Cl)nc(N)n1` [compound 2]: the IC50 was in the range of 1000 to 4000 nM. The same measure, in the same setting: to `CNc1nc(C)cc(-c2c(Cl)cc(Cl)c3c2CCO3)n1` [compound 3, 4-(5,7-Dichloro-2,3-dihydrobenzofuran-4-yl)-N,6-dimethylpyrimidin-2-amine] belongs more than 10000 nM; to `Cc1cc(-c2c(Cl)cc(Cl)c3c2CCO3)nc(N(C)C)n1` [compound 4, 4-(5,7-Dichloro-2,3-dihydrobenzofuran-4-yl)-N,N,6-trimethylpyrimidin-2-amine], more than 10000 nM; to `COc1cc(-c2nc(N)nc3c2CCC3)c(Cl)cc1F` [compound 11, 4-(2-chloro-4-fluoro-5-methoxyphenyl)-6,7-dihydro-5H-cyclopenta[d]pyrimidin-2-amine], 4000 to 10000 nM. On the same count and under the same terms, under `Nc1nc2c(c(-c3c(Cl)cc(Cl)c4c3CCO4)n1)CCCC2` [compound 15, 4-(5,7-dichloro-2,3-dihydrobenzofuran-4-yl)-5,6,7,8-tetrahydroquinazolin-2-amine] stands 4000 to 10000 nM; under `CCNC(=O)N1Cc2nc(N)nc(-c3c(Cl)cc(Cl)c4c3CCO4)c2C1` [compound 17], more than 10000 nM; under `Cn1ccc2c(-c3c(Cl)cc(Cl)c4c3CCO4)nc(N)nc21` [compound 30], more than 10000 nM. On the same count and under the same terms, under `CCNC(=O)Cn1ccc2nc(N)nc(-c3c(Cl)cc(Cl)c4c3CCO4)c21` [compound 31] stands more than 10000 nM; under `CCNC(=O)Cn1ccc2c(-c3c(Cl)cc(Cl)c4c3CCO4)nc(N)nc21` [compound 32], more than 10000 nM; under `CNc1cc(-c2c(Cl)cc(Cl)c3c2CCO3)nc(N)n1` [compound 33], 4000 to 10000 nM. Consider `COc1cc(-c2nc(N)nc(SC)n2)c(Cl)cc1Cl` [compound 34], for which the IC50 was less than 1000 nM.

Take `COc1cc(-c2cc(SC)nc(N)n2)c(Cl)cc1Cl` [compound 35]: the IC50 was less than 1000 nM. Same read-out and setting: under `COc1cc(-c2nc(N)nc(-c3cc(OC)c(Cl)cc3Cl)n2)c(Cl)cc1Cl` [compound 37] stands more than 10000 nM; under `COc1cc(-c2cc(C)nc(N)n2)c(Cl)cc1Cl` [compound 38], 1000 to 4000 nM.

Consider `Nc1nc(Cl)cc(-c2c(Cl)cc(Cl)c3c2CCO3)n1` [compound 49, 4-chloro-6-(5,7-dichloro-2,3-dihydrobenzofuran-4-yl)pyrimidin-2-amine], for which the IC50 is less than 1000 nM. Still for that read-out and setting: under `Nc1nc(-c2c(Cl)cc(Cl)c3c2CCO3)cc(C(F)(F)F)n1` [compound 50, 4-trifluoromethyl-6-(5,7-dichloro-2,3-dihydrobenzofuran-4-yl)pyrimidin-2-amine] stands 1000 to 4000 nM; under `CSc1cc(-c2c(Cl)cc(Cl)c3c2CCO3)nc(N)n1` [compound 51, 4-thiomethyl-6-(5,7-dichloro-2,3-dihydrobenzofuran-4-yl)pyrimidin-2-amine], less than 1000 nM. For `Nc1nc(Cl)c(N)c(-c2c(Cl)cc(Cl)c3c2CCO3)n1` [compound 52, 4-chloro-6-(5,7-dichloro-2,3-dihydrobenzofuran-4-yl)pyrimidine-2,5-diamine], the IC50 was less than 1000 nM. On the same count and under the same terms, under `Nc1nc(O)cc(-c2c(Cl)cc(Cl)c3c2CCO3)n1` [compound 53, 2-amino-6-(5,7-dichloro-2,3-dihydrobenzofuran-4-yl)pyrimidin-4-ol] stands more than 10000 nM; under `COC(=O)n1ccc2nc(N)nc(-c3c(Cl)cc(Cl)c4c3CCO4)c21` [compound 54, Methyl 2-amino-4-(5,7-dichloro-2,3-dihydrobenzofuran-4-yl)-5H-pyrrolo[3,2-d]pyrimidine-5-carboxylate], more than 10000 nM. Same read-out and setting: under `Nc1nc(-c2c(Cl)cc(Cl)c3c2CCO3)c2[nH]cc(C=O)c2n1` [compound 56, 2-amino-4-(5,7-dichloro-2,3-dihydrobenzofuran-4-yl)-5H-pyrrolo[3,2-d]pyrimidine-7-carbaldehyde] stands more than 10000 nM; under `COc1cc(-c2nc(N)nc3c(Br)c[nH]c23)c(Cl)cc1Cl` [compound 57, 7-bromo-4-(2,4-dichloro-5-methoxyphenyl)-5H-pyrrolo[3,2-d]pyrimidin-2-amine], more than 10000 nM; under `Nc1nc(-c2c(Cl)cc(Cl)c3c2CCO3)c2cc(C(=O)NCCN3CCCC3)sc2n1` [compound 58, 2-amino-4-(5,7-dichloro-2,3-dihydrobenzofuran-4-yl)-N-(2-(pyrrolidin-1-yl)ethyl)thieno[2,3-d]pyrimidine-6-carboxamide], less than 1000 nM. Take `N#CCCNC(=O)c1cc2c(-c3c(Cl)cc(Cl)c4c3CCO4)nc(N)nc2s1` [compound 59, 2-amino-N-(2-cyanoethyl)-4-(5,7-dichloro-2,3-dihydrobenzofuran-4-yl)thieno[2,3-d]pyrimidine-6-carboxamide]: the IC50 was less than 1000 nM.

Regarding `Nc1nc(-c2c(Cl)cc(Cl)c3c2CCO3)c2cc(C(=O)NCCO)sc2n1` [compound 60, 2-amino-4-(5,7-dichloro-2,3-dihydrobenzofuran-4-yl)-N-(2-hydroxyethyl)thieno[2,3-d]pyrimidine-6-carboxamide], the IC50 is less than 1000 nM. On the same count and under the same terms, under `Nc1nc(-c2c(Cl)cc(Cl)c3c2CCO3)c2cc(C(=O)NCC(F)(F)F)sc2n1` [compound 61, 2-amino-4-(5,7-dichloro-2,3-dihydrobenzofuran-4-yl)-N-(2,2,2-trifluoroethyl)thieno[2,3-d]pyrimidine-6-carboxamide] stands less than 1000 nM. On the same count and under the same terms, under `Nc1nc(-c2c(Cl)cc(Cl)c3c2CCO3)c2cc(C(=O)NC3CC3)sc2n1` [compound 62, 2-amino-N-cyclopropyl-4-(5,7-dichloro-2,3-dihydrobenzofuran-4-yl)thieno[2,3-d]pyrimidine-6-carboxamide] stands less than 1000 nM; under `CNC(=O)c1cc2c(-c3c(Cl)cc(Cl)c4c3CCO4)nc(N)nc2s1` [compound 63, 2-amino-4-(5,7-dichloro-2,3-dihydrobenzofuran-4-yl)-N-methylthieno[2,3-d]pyrimidine-6-carboxamide], less than 1000 nM.

Regarding `COCCNC(=O)c1cc2c(-c3c(Cl)cc(Cl)c4c3CCO4)nc(N)nc2s1` [compound 64, 2-amino-4-(5,7-dichloro-2,3-dihydrobenzofuran-4-yl)-N-(2-methoxyethyl)thieno[2,3-d]pyrimidine-6-carboxamide], the IC50 is less than 1000 nM.

`Nc1nc(-c2c(Cl)cc(Cl)c3c2CCO3)c2cc(C(=O)NC3CCC3)sc2n1` [compound 65, 2-amino-N-cyclobutyl-4-(5,7-dichloro-2,3-dihydrobenzofuran-4-yl)thieno[2,3-d]pyrimidine-6-carboxamide]: the IC50 was less than 1000 nM. With `CN(C)C(=O)c1cc2c(-c3c(Cl)cc(Cl)c4c3CCO4)nc(N)nc2s1` [compound 66, 2-amino-4-(5,7-dichloro-2,3-dihydrobenzofuran-4-yl)-N,N-dimethylthieno[2,3-d]pyrimidine-6-carboxamide], the IC50 is less than 1000 nM. `Nc1nc(-c2c(Cl)cc(Cl)c3c2CCO3)c2cc(C(=O)NC3COC3)sc2n1` [compound 67, 2-amino-4-(5,7-dichloro-2,3-dihydrobenzofuran-4-yl)-N-(oxetan-3-yl)thieno[2,3-d]pyrimidine-6-carboxamide]: the IC50 is less than 1000 nM. The same measure, in the same setting: under `Nc1nc(-c2c(Cl)cc(Cl)c3c2CCO3)c2cc(C(=O)N3CCOCC3)sc2n1` [compound 68, (2-amino-4-(5,7-dichloro-2,3-dihydrobenzofuran-4-yl)thieno[2,3-d]pyrimidin-6-yl)(morpholino)methanone] stands 1000 to 4000 nM; under `Nc1nc(-c2c(Cl)cc(Cl)c3c2CCO3)c2cc(C(=O)N3CCCC3)sc2n1` [compound 69, (2-amino-4-(5,7-dichloro-2,3-dihydrobenzofuran-4-yl)thieno[2,3-d]pyrimidin-6-yl)(pyrrolidin-1-yl)methanone], 1000 to 4000 nM; under `CN(CC(F)(F)F)C(=O)c1cc2c(-c3c(Cl)cc(Cl)c4c3CCO4)nc(N)nc2s1` [compound 70, 2-amino-4-(5,7-dichloro-2,3-dihydrobenzofuran-4-yl)-N-methyl-N-(2,2,2-trifluoroethyl)thieno[2,3-d]pyrimidine-6-carboxamide], 4000 to 10000 nM. Same read-out and setting: under `CN(CCC#N)C(=O)c1cc2c(-c3c(Cl)cc(Cl)c4c3CCO4)nc(N)nc2s1` [compound 71, 2-amino-N-(2-cyanoethyl)-4-(5,7-dichloro-2,3-dihydrobenzofuran-4-yl)-N-methylthieno[2,3-d]pyrimidine-6-carboxamide] stands less than 1000 nM; under `CN(C(=O)c1cc2c(-c3c(Cl)cc(Cl)c4c3CCO4)nc(N)nc2s1)C1COC1` [compound 72, 2-amino-4-(5,7-dichloro-2,3-dihydrobenzofuran-4-yl)-N-methyl-N-(oxetan-3-yl)thieno[2,3-d]pyrimidine-6-carboxamide], 1000 to 4000 nM. As to `CN(C(=O)c1cc2c(-c3c(Cl)cc(Cl)c4c3CCO4)nc(N)nc2s1)C1CC1` [compound 74, 2-amino-N-cyclopropyl-4-(5,7-dichloro-2,3-dihydrobenzofuran-4-yl)-N-methylthieno[2,3-d]pyrimidine-6-carboxamide], the IC50 was in the range of 1000 to 4000 nM. Turning to `CON(C)C(=O)c1cc2c(-c3c(Cl)cc(Cl)c4c3CCO4)nc(N)nc2s1` [compound 75, 2-amino-4-(5,7-dichloro-2,3-dihydrobenzofuran-4-yl)-N-methoxy-N-methylthieno[2,3-d]pyrimidine-6-carboxamide], the IC50 was less than 1000 nM. The same measure, in the same setting: under `CCC(=O)c1cc2c(-c3c(Cl)cc(Cl)c4c3CCO4)nc(N)nc2s1` [compound 76, 1-(2-amino-4-(5,7-dichloro-2,3-dihydrobenzofuran-4-yl)thieno[2,3-d]pyrimidin-6-yl)propan-1-one] stands less than 1000 nM.

Still in this test, the particulars now being: known Hsp90 inhibitor, biotinylated geldanamycin; read-out: IC50 (AlphaLISA assay validation).
As for `CC(C)NCCCn1c(Sc2cc3c(cc2I)OCO3)nc2c(N)ncnc21` [PU-H71, reference compound], the IC50 is 60 nM.
